This data set concerns CCRIS mutagenicity, Ames/micronucleus/aberration tests. Kind of data set: CCRIS mutagenicity studies.
Where [1] appears, read: Test System: AMES SALMONELLA TYPHIMURIUM, Strain/Indicator: TA98, Metabolic Activation: NONE.
[2] abbreviates: Test System: AMES SALMONELLA TYPHIMURIUM, Strain/Indicator: TA98, Metabolic Activation: NONE, Method: STANDARD PLATE.
Where [3] appears, read: Test System: AMES SALMONELLA TYPHIMURIUM, Strain/Indicator: TA100, Metabolic Activation: NONE.
[4] abbreviates: Test System: AMES SALMONELLA TYPHIMURIUM, Strain/Indicator: TA100, Metabolic Activation: NONE, Method: STANDARD PLATE.
The mark [5] stands for this setting: Test System: AMES SALMONELLA TYPHIMURIUM, Strain/Indicator: TA1535, Metabolic Activation: NONE.
[6] abbreviates: Test System: AMES SALMONELLA TYPHIMURIUM, Strain/Indicator: TA1537, Metabolic Activation: NONE.
[7] abbreviates: Test System: AMES SALMONELLA TYPHIMURIUM, Strain/Indicator: TA98, Metabolic Activation: NONE, Method: PREINCUBATION
Where [8] appears, read: Test System: AMES SALMONELLA TYPHIMURIUM, Strain/Indicator: TA100, Metabolic Activation: NONE, Method: PREINCUBATION
[9] abbreviates: Test System: AMES SALMONELLA TYPHIMURIUM, Strain/Indicator: TA1535, Metabolic Activation: NONE, Method: PREINCUBATION
The mark [10] stands for this setting: Test System: AMES SALMONELLA TYPHIMURIUM, Strain/Indicator: TA1537, Metabolic Activation: NONE, Method: PREINCUBATION

Calls of active or inactive are those of the source. No rule for the calls is given here.

`CCCC(=O)Nc1ccc(OCC(O)CNC(C)C)c(C(C)=O)c1` (stereo unspecified): the mutagenic call under setting [1] was “inactive; negative”; the mutagenic call under setting [2] is “inactive; negative”; the mutagenic call (Test System: AMES SALMONELLA TYPHIMURIUM, Strain/Indicator: TA98, Metabolic Activation: RAT, LIVER, S-9, AROCLOR 1254) is “inactive; negative”; the mutagenic call (Test System: AMES SALMONELLA TYPHIMURIUM, Strain/Indicator: TA98, Metabolic Activation: RAT, LIVER, S-9, AROCLOR 1254, Method: STANDARD PLATE) is “inactive; negative”; the mutagenic call under setting [3] was “inactive; negative”; the mutagenic call under setting [4] is “inactive; negative”. Also, the mutagenic call (Test System: AMES SALMONELLA TYPHIMURIUM, Strain/Indicator: TA100, Metabolic Activation: RAT, LIVER, S-9, AROCLOR 1254) was “inactive; negative”; the mutagenic call (Test System: AMES SALMONELLA TYPHIMURIUM, Strain/Indicator: TA100, Metabolic Activation: RAT, LIVER, S-9, AROCLOR 1254, Method: STANDARD PLATE) was “inactive; negative”; the mutagenic call under setting [5] is “inactive; negative”; the mutagenic call (Test System: AMES SALMONELLA TYPHIMURIUM, Strain/Indicator: TA1535, Metabolic Activation: RAT, LIVER, S-9, AROCLOR 1254) was “inactive; negative”; the mutagenic call under setting [6] is “inactive; negative”; the mutagenic call (Test System: AMES SALMONELLA TYPHIMURIUM, Strain/Indicator: TA1537, Metabolic Activation: RAT, LIVER, S-9, AROCLOR 1254) is “inactive; negative”.

For `C=CC[N+](C)(C)CC=C`, the mutagenic call runs as follows: under setting [7], “inactive; negative”; (Test System: AMES SALMONELLA TYPHIMURIUM, Strain/Indicator: TA98, Metabolic Activation: RAT LIVER S-9, PHENOBARBITAL AND BETA-NAPHTHOFLAVONE, Method: PREINCUBATION) “inactive; negative”; under setting [8], “inactive; negative”; (Test System: AMES SALMONELLA TYPHIMURIUM, Strain/Indicator: TA100, Metabolic Activation: RAT LIVER S-9, PHENOBARBITAL AND BETA-NAPHTHOFLAVONE, Method: PREINCUBATION) “inactive; negative”; under setting [9], “inactive; negative”; (Test System: AMES SALMONELLA TYPHIMURIUM, Strain/Indicator: TA1535, Metabolic Activation: RAT LIVER S-9, PHENOBARBITAL AND BETA-NAPHTHOFLAVONE, Method: PREINCUBATION) “inactive; negative”. In addition, the mutagenic call is “inactive; negative” under setting [10]; “inactive; negative” (Test System: AMES SALMONELLA TYPHIMURIUM, Strain/Indicator: TA1537, Metabolic Activation: RAT LIVER S-9, PHENOBARBITAL AND BETA-NAPHTHOFLAVONE, Method: PREINCUBATION); “inactive; negative” (Test System: E.COLI, Strain/Indicator: WP2UVRA/PKM101, Metabolic Activation: NONE, Method: PREINCUBATION); “inactive; negative” (Test System: E.COLI, Strain/Indicator: WP2UVRA/PKM101, Metabolic Activation: RAT LIVER S-9, PHENOBARBITAL AND BETA-NAPHTHOFLAVONE, Method: PREINCUBATION).

With `CCN(CC)CC#CCOC(=O)C(O)(c1ccccc1)C1CCCCC1` (stereo unspecified), the mutagenic call runs as follows: under setting [1], “inactive; negative”; (Test System: AMES SALMONELLA TYPHIMURIUM, Strain/Indicator: TA98, Metabolic Activation: S-9) “inactive; negative”; under setting [3], “inactive; negative”; (Test System: AMES SALMONELLA TYPHIMURIUM, Strain/Indicator: TA100, Metabolic Activation: S-9) “inactive; negative”; under setting [5], “inactive; negative”; (Test System: AMES SALMONELLA TYPHIMURIUM, Strain/Indicator: TA1535, Metabolic Activation: S-9) “inactive; negative”. Moreover, the mutagenic call under setting [6] was “inactive; negative”; the mutagenic call (Test System: AMES SALMONELLA TYPHIMURIUM, Strain/Indicator: TA1537, Metabolic Activation: S-9) was “inactive; negative”; the mutagenic call (Test System: AMES SALMONELLA TYPHIMURIUM, Strain/Indicator: TA1538, Metabolic Activation: NONE) was “inactive; negative”; the mutagenic call (Test System: AMES SALMONELLA TYPHIMURIUM, Strain/Indicator: TA1538, Metabolic Activation: S-9) is “inactive; negative”; the mutagenic call (Test System: E. COLI, Strain/Indicator: WP2 UVRA, Metabolic Activation: NONE) is “inactive; negative”; the mutagenic call (Test System: E. COLI, Strain/Indicator: WP2 UVRA, Metabolic Activation: S-9) is “inactive; negative”.

On to `COc1ccc(CCl)cc1`, for which the mutagenic call under setting [4] is “inactive; negative”.

Regarding `C=C1[C@@H](C)[C@H]2[C@H](Cc3ccccc3)NC(=O)[C@]23OC(=O)/C=C/[C@H](O)CCC[C@@H](C)C/C=C/[C@H]3[C@@H]1O`, the mutagenic call (End Point: In vivo micronucleus, Test System: Micronucleated, binucleated and multinucleated hepatocytes, Species: Mouse, Strain/Sex: ddY/Male, Route: Intravenous) is “active; positive for micronucleated cells when agent administered before and after parti”.

As for `O=C1OC(=O)c2cc([N+](=O)[O-])ccc21`, the mutagenic call is, setting by setting: (Test System: AMES SALMONELLA TYPHIMURIUM, Strain/Indicator: TA97, Metabolic Activation: HAMSTER, LIVER, S-9, AROCLOR 1254 (10%), Method: PREINCUBATION) “inactive; negative”; (Test System: AMES SALMONELLA TYPHIMURIUM, Strain/Indicator: TA97, Metabolic Activation: NONE, Method: PREINCUBATION) “active; positive”; (Test System: AMES SALMONELLA TYPHIMURIUM, Strain/Indicator: TA97, Metabolic Activation: RAT, LIVER, S-9, AROCLOR 1254 (10%), Method: PREINCUBATION) “active; positive”; (Test System: AMES SALMONELLA TYPHIMURIUM, Strain/Indicator: TA98, Metabolic Activation: HAMSTER, LIVER, S-9, AROCLOR 1254 (10%), Method: PREINCUBATION) “active; positive”; under setting [7], “active; positive”; (Test System: AMES SALMONELLA TYPHIMURIUM, Strain/Indicator: TA98, Metabolic Activation: RAT, LIVER, S-9, AROCLOR 1254 (10%), Method: PREINCUBATION) “active; positive”. The mutagenic call (Test System: AMES SALMONELLA TYPHIMURIUM, Strain/Indicator: TA100, Metabolic Activation: HAMSTER, LIVER, S-9, AROCLOR 1254 (10%), Method: PREINCUBATION) is “inactive; negative”; the mutagenic call under setting [8] is “inactive; negative”; the mutagenic call (Test System: AMES SALMONELLA TYPHIMURIUM, Strain/Indicator: TA100, Metabolic Activation: RAT, LIVER, S-9, AROCLOR 1254 (10%), Method: PREINCUBATION) was “inactive; negative”; the mutagenic call (Test System: AMES SALMONELLA TYPHIMURIUM, Strain/Indicator: TA1535, Metabolic Activation: HAMSTER, LIVER, S-9, AROCLOR 1254 (10%), Method: PREINCUBATION) was “active; positive”; the mutagenic call under setting [9] was “inactive; negative”; the mutagenic call (Test System: AMES SALMONELLA TYPHIMURIUM, Strain/Indicator: TA1535, Metabolic Activation: RAT, LIVER, S-9, AROCLOR 1254 (10%), Method: PREINCUBATION) is “inactive; negative”. In addition, the mutagenic call reads like this: (Test System: AMES SALMONELLA TYPHIMURIUM, Strain/Indicator: TA1537, Metabolic Activation: HAMSTER, LIVER, S-9, AROCLOR 1254 (10%), Method: PREINCUBATION) “inactive; negative”; under setting [10], “active; positive”; (Test System: AMES SALMONELLA TYPHIMURIUM, Strain/Indicator: TA1537, Metabolic Activation: RAT, LIVER, S-9, AROCLOR 1254 (10%), Method: PREINCUBATION) “active; positive”.

`O[C@@H]([C@H](O)[C@H](O)CBr)[C@H](O)CBr`: the mutagenic call under setting [2] is “inactive; negative”; the mutagenic call under setting [4] is “inactive; negative”; the mutagenic call (Test System: AMES SALMONELLA TYPHIMURIUM, Strain/Indicator: TA100, Metabolic Activation: S-9, Method: STANDARD PLATE) was “active; positive”; the mutagenic call (Test System: E. COLI, Strain/Indicator: WP2 (HCR), Metabolic Activation: NONE, Method: STANDARD PLATE) is “inactive; negative”; the mutagenic call (Test System: E. COLI, Strain/Indicator: WP2 (HCR), Metabolic Activation: S-9, Method: STANDARD PLATE) is “active; positive”.

Values taken from PubChem BioAssay AID1259407 (Chemical Carcinogenesis Research Information System (CCRIS), 2018).
